The values below come from paper PMC9051980 (Saudi Pharmaceutical Journal : SPJ, 2022).

Data set [1] in a line: Plasma pharmacokinetic evaluation. It is filed as in vivo, C57BL/6N mice. Particulars: both, C57BL/6N, mouse, po, 0.4 mg/mouse.
Data set [2] is described as follows: In-vitro drug release. It counts as physicochemical. Particulars: 34 °C, 200 rpm, artificial nasal fluid.
Data set [3] in a line: Nasal perfusion method. The following applies: at 60 min; 20 mL artificial nasal solution, 1 mg/mL, total dose 20 mg. It is filed as in vivo, C57 mouse.
Data set [4] in a line: In-vivo tissue distribution evaluation. Particulars: both, C57BL/6N, mouse, po, 0.4 mg/mouse.
In data set [5] the test system is cilia of the maxillary mucosa of toads. Nature of the data set: Mucosal irritation. Set-up: species or system toad.
The test system of data set [6] is PTSD mice. The data set is described as follows: Freezing response test in fear-conditioning box. It counts as in vivo, C57 mice.
In data set [7] the test system is amygdala dopamine transporter (DAT). The data set is described as follows: Immunohistochemistry of amygdala DAT. It is filed as in vivo, C57 mice. The following applies: Day 19, compared with Healthy group.
Data set [8] has as its system plasma CORT. The data set is described as follows: Plasma CORT level. It counts as in vivo, C57 mice. The following applies: Day 19, compared with Healthy group.
Data set [9] relates to PTSD mice. The data set is described as follows: Open field test. It counts as in vivo, C57 mice.
[10] abbreviates: Day 17, five days after drug withdrawal, compared with Healthy group.
[11] abbreviates: Day 17, five days after drug withdrawal, compared with Model group.
[12] abbreviates: Day 12, compared with Model group.

As usually defined, the AUC(0-t) is the area under the concentration-time curve up to a stated or last time point. A high value points to high exposure. Usually Cmax stands for the maximum level reached in the sampled fluid or tissue. Usually Tmax stands for the time from dosing to the highest level. `NC(=O)C[S@@+]([O-])C(c1ccccc1)c1ccccc1` [Armodafinil]: the AUC(0-t) in data set [1] was 9900 ± 5500 ng·h/mL; in [4] (brain), 1090 ng·h/mL; in data set [4] (liver), 2380 ng·h/mL. Also, the values for the Cmax in data set [1], in data set [4] (brain) and in [4] (liver) were 3600 ± 2250 ng/mL, 259 ± 96 ng/mL and 1150 ± 199 ng/mL, respectively. Besides, the time to peak (Tmax) in [1] came to 15 min; in [4] (brain) it was 30 min; in [4] (liver), 30 min. Also, the “Time at which the release was complete” value in [2] stood at 2 h. Moreover, in data set [2] (20 mg/mL armodafinil), the “Released armodafinil percentage when release was complete” value was found to be 18.12 ± 1.03%. In addition, in [3], the “Mucosal absorptive amount of armodafinil” value turned out to be 2.50 mg.

Take `C[C@H](CCC(=O)O)[C@H]1CC[C@H]2[C@@H]3CC[C@@H]4C[C@H](O)CC[C@]4(C)[C@H]3C[C@H](O)[C@]12C` [Sodium Deoxycholate]: the “PVD (persistent vibration duration of cilia)” value in data set [5] (100 μL on toad upper-jaw mucosa, armodafinil 20 mg/mL, sodium deoxycholate 1%) is 136.67 ± 26.95 min. For the same compound, in data set [5] (PVD compared with that of the saline group), the “PPV (percentage of persistent vibration)” value is recorded as 20.69%. The “Ciliary structure / extent of damage of cilia under microscope” value in [5] (maxillary mucosa of toads) is “obviously prostrate or even exfoliated”.

With `CN[C@H]1CC[C@@H](c2ccc(Cl)c(Cl)c2)c2ccccc21` [Sertraline], the Freezing time result is listed as “longer freezing time” in [6] (Day 11, compared with Healthy group); “longer freezing time” in data set [6] (setting [10]); “shorter freezing time” in data set [6] (setting [11]). In addition, the Total active distances result is listed as “shorter total active distances” in data set [6] (Day 11, fear-conditioning box, compared with Healthy group); “longer total active distances” in data set [6] (Day 11, fear-conditioning box, compared with Model group); “shorter total active distances” in data set [6] (setting [10]); “longer total active distances” in data set [6] (setting [11]); “more total active distances” in data set [9] (Day 12, open field, compared with Model group); “fewer total active distances” in [9] (Day 18, open field, after drug withdrawal, compared with Healthy group). The Total active distances entry in data set [9] (Day 18, open field, after drug withdrawal, compared with Model group) is reported as “increased”. For the same compound, in data set [7], the “DAT expression in amygdala (IOD)” value was “significantly increased”. Further, the “Plasma CORT level” value in data set [8] was “decreased”. Also, the “Open field test indicators” value in [9] (Day 12, compared with Healthy group) is “fewer crossing times”. Also, the “Active distances in the center of thigmotaxis area” value in data set [9] (setting [12]) is listed as “more active distances in the center of thigmotaxis area”. Also, the “Crossings in the center of thigmotaxis area” value in data set [9] (setting [12]) was “more crossings in the center of thigmotaxis area”. Besides, the “Crossings and active distances in the center of thigmotaxis area” value in [9] (Day 18, after drug withdrawal, compared with Healthy group) was “fewer crossings and active distances in the center of thigmotaxis area”. In addition, in data set [9] (Day 18, after drug withdrawal, compared with Model group), the “Crossing of the center of thigmotaxis area” value was “more frequently”.
